From publication PMC12431657, “Discovery and mechanistic insights of dibenzoylmethane as a broad spectrum inhibitor of coronavirus” (PLOS Pathogens, 2025)
“And” between values parts separate entries of the source, which are not always exact repeats. Identical values can stand only once.

Columns and labels:
[1] = Metabolic stability in human liver microsomes; type: in vitro ADME; settings: average, read-out: T1/2 of metabolism
Method: Thus, a pharmacokinetic study was performed for DBM in Sprague-Dawley (SD) rats. Following oral administration of menstruum or DBM at 200 mpk, blood samples from the rats were collected at 2 min, 5 min, 15 min, 30 min, 1 h, 2 h, 4 h, 8 h, and 24 h posttreatment. The concentration of DBM in the plasma was determined by liquid chromatography with tandem mass spectrometry (LC-MS/MS). The minimum effective concentration (MEC) line in the graph represents the EC95 value of DBM (Fig 3C). […] To analyse the metabolic stability of DBM, we incubated human and mouse liver microsomes with DBM. The T1/2 of metabolism was an average of 13.92 min in human liver microsomes and 4.84 min in mouse liver microsomes.

[2] = test system: HCoV-OC43; test: In vivo efficacy of DBM against HCoV-OC43 in suckling mice (body weight, viral RNA copies, immunofluorescence, H&E); set-up: species or system BALB/c suckling mice; settings: for Viral RNA copies (log scale), Brain / Viral RNA copies (log scale), Kidney / Viral RNA copies (log scale), Lung / Viral RNA copies (log scale), Spinal Cord: one value per mouse
Method: Next, we characterized the therapeutic efficacy of the DBM in vivo. In this experiment, randomized 5–6-day-old suckling BALB/c mice were orally treated with DBM at concentrations of 500, 200, and 100 mpk 2 hours after being intranasally challenged with HCoV-OC43. Menstruum and VV116 were used as negative and positive controls, respectively. All the mice were sacrificed on Day 5 for organ and sample collection (Fig 4A). The body weight changes of the mice were continuously monitored during the trial. Infection with HCoV-OC43 led to body weight loss in the vehicle-treated mice on Day 5 (Fig 4B). […] The number of viral RNA copies from the brain, spinal cord, lungs, and kidneys were analysed via qRT-PCR, which targeted the HCoV-OC43 nucleocapsid gene sequence. On Day 5, the number of viral RNA copies in the vehicle-treated group reached approximately 10^12 copies in the brain, 10^9 copies in the spinal cord, 10^8 copies in the lungs, and 10^6 copies in the kidney (Fig 4C). In the mice treated with DBM at 500 mpk, the number of viral RNA copies within these organs and tissues was reduced by 1–3 logs compared with the vehicle-treated group. […] Sections of mouse brains, spinal cords, lungs, and kidneys were subjected to immunofluorescence staining with antibodies targeting HCoV-OC43 nucleocapsid proteins.
Fig 4 In vivo antiviral efficacy of DBM in 5-day-old BALB/c suckling mice infected with HCoV-OC43. A) Schematic of the experimental design for evaluating DBM in suckling mice. Each group consisted of 5-6 suckling mice. The schematic was created by the authors using Adobe Illustrator 2022. B) Body weight changes of mice during the experiment. Body weights were recorded daily and all mice were euthanised on the fifth day after infection. C) Viral RNA copies in the brains, spinal cords, lungs, and kidneys of mice collected on Day 5. After grinding and centrifuging the samples with DMEM, viral copies from the supernatants were tested by qRT-PCR. D) Viral titres in homogenised organs and tissues collected from mice on Day 5. E) Immunofluorescence staining of brain and lung sections from mice treated with different regimens. HCoV-OC43 nucleocapsid proteins were detected by immunofluorescence (green). Cell nuclei were stained with DAPI (blue). Data were statistically analyzed with Student’s T test. *: p ≤ 0.05, **: p ≤ 0.01, ***: p ≤ 0.001, ****: p ≤ 0.0001; ns, not significant. The experiments were repeated three times independently with similar results. […] No numeric values are printed in any panel, and nothing was read off the bars, points or curves.
BALB/c mice were maintained and bred in a specific-pathogen-free (SPF) environment at the Laboratory Animal Center of Wuhan Institute of Virology, CAS. Pregnant mice with the same expected delivery date were acclimated in individually ventilated cages under standard conditions within an SPF environment. Food and water were available ad libitum. The mice were anaesthetized by isoflurane inhalation before any operation that may have caused potential discomfort. Before the experiment, suckling mice were randomly allocated into 6 distinct groups, namely, the healthy group, the vehicle group, the groups receiving DBM at 500 mg/kg (mpk) orally quaque die (QD), 200 mpk QD, and 100 mpk QD, and the group receiving VV116 at 25 mpk orally QD. Each group was comprised of 5–6 suckling mice. On the initiation day (Day 0) of the experiment, 5–6-day-old BALB/c suckling mice were intranasally infected with 1 × 10^4 TCID50 of HCoV-OC43. Two hours postinoculation, the mice were orally treated with either a placebo or varying doses of the drugs on the basis of their respective groupings as outlined earlier. This oral treatment regimen was continued for several days. The body weight changes of the mice were monitored daily. On Day 5, all the mice in each group were sacrificed for virological and histopathological analyses. […]

In the case of `O=C(CC(=O)c1ccccc1)c1ccccc1` [DBM, dibenzoylmethane], the half-life [1] is reported as 13.9 min, the “Viral RNA copies (log scale), Brain” value ([2]; DBM 100 mpk oral QD, Day 5) is reported as 10.75 and 11.25 and 9.46 and 11.43 and 10.91 and 11.34 and the “Viral RNA copies (log scale), Kidney” value ([2]; DBM 100 mpk oral QD, Day 5) is reported as 4.46 and 4.97 and 5.51 and 4.16 and 5.82 and 6.00. The “Viral RNA copies (log scale), Lung” value ([2]; DBM 100 mpk oral QD, Day 5) was 5.86 and 6.10 and 6.32 and 5.21 and 6.78 and 7.01, the “Viral RNA copies (log scale), Spinal Cord” value ([2]; DBM 100 mpk oral QD, Day 5) was 6.20 and 7.58 and 5.38 and 6.52 and 6.60 and 6.93 and the “Viral RNA copies (log scale), Brain” value ([2]; DBM 200 mpk oral QD, Day 5) was 11.00 and 7.97 and 8.87 and 10.9 and 11.19. For the same compound, the “Viral RNA copies (log scale), Kidney” value ([2]; DBM 200 mpk oral QD, Day 5) was 3.29 and 5.31 and 4.03 and 3.52 and 4.72, the “Viral RNA copies (log scale), Lung” value ([2]; DBM 200 mpk oral QD, Day 5) was 5.84 and 6.05 and 5.32 and 4.74 and 6.24 and the “Viral RNA copies (log scale), Spinal Cord” value ([2]; DBM 200 mpk oral QD, Day 5) was 7.21 and 4.77 and 4.18 and 5.72 and 5.07. The “weight loss during the experiment” value ([2]; DBM 500, 200, 100 mpk, VV116 25 mpk) was “did not experience weight loss”, the “Viral RNA copies (log scale), Brain” value ([2]; DBM 500 mpk oral QD, Day 5) was 7.30 and 7.20 and 10.02 and 9.11 and the “Viral RNA copies (log scale), Kidney” value ([2]; DBM 500 mpk oral QD, Day 5) was 5.15 and 4.76 and 4.30 and 4.17. The “Viral RNA copies (log scale), Lung” value ([2]; DBM 500 mpk oral QD, Day 5) was 6.62 and 5.77 and 7.8 and 5.49, the “Viral RNA copies (log scale), Spinal Cord” value ([2]; DBM 500 mpk oral QD, Day 5) was 7.86 and 7.12 and 7.13 and 6.92 and the “reduction of viral RNA copies in organs and tissues compared with the vehicle-treated group” value ([2]; DBM 500 mpk, Day 5, brain, spinal cord, lungs, kidneys) was 1–3 logs. For the same compound, the “Body weight (Fig4B)” value ([2]; Diben-100mpk, day 0, individual mice, 100 mg/kg) was 106.0 and 99.6 and 102.4 and 92.2 and 88.6 and 111.2, the “Body weight (Fig4B)” value ([2]; Diben-100mpk, day 1, individual mice, 100 mg/kg) was 104.0 and 113.7 and 124.8 and 125.0 and 120.9 and 107.3 and the “Body weight (Fig4B)” value ([2]; Diben-100mpk, day 2, individual mice, 100 mg/kg) was 129.4 and 142.0 and 134.3 and 116.8 and 125.0 and 145.3. For the same compound, the “Body weight (Fig4B)” value ([2]; Diben-100mpk, day 3, individual mice, 100 mg/kg) was 151.0 and 158.2 and 143.3 and 162.5 and 135.0 and 139.2, the “Body weight (Fig4B)” value ([2]; Diben-100mpk, day 4, individual mice, 100 mg/kg) was 155.1 and 164.8 and 182.5 and 163.5 and 153.3 and 179.2 and the “Body weight (Fig4B)” value ([2]; Diben-100mpk, day 5, individual mice, 100 mg/kg) was 154.0 and 147.9 and 188.2 and 194.1. The “Body weight (Fig4B)” value ([2]; Diben-200mpk, day 0, individual mice, 200 mg/kg) was 111.2 and 88.7 and 105.9 and 107.7 and 103.2 and 83.4, the “Body weight (Fig4B)” value ([2]; Diben-200mpk, day 1, individual mice, 200 mg/kg) was 125.7 and 104.5 and 114.6 and 120.1 and 114.8 and 89.2 and the “Body weight (Fig4B)” value ([2]; Diben-200mpk, day 2, individual mice, 200 mg/kg) was 114.8 and 130.4 and 137.3 and 125.5 and 125.0 and 98.5. For the same compound, the “Body weight (Fig4B)” value ([2]; Diben-200mpk, day 3, individual mice, 200 mg/kg) was 132.4 and 107.4 and 150.4 and 128.4 and 109.9 and 143.8, the “Body weight (Fig4B)” value ([2]; Diben-200mpk, day 4, individual mice, 200 mg/kg) was 124.4 and 149.1 and 155.3 and 166.7 and 150.7 and DIED and the “Body weight (Fig4B)” value ([2]; Diben-200mpk, day 5, individual mice, 200 mg/kg) was 132.2 and 156.0 and 162.7 and 162.5 and 153.8. For the same compound, the “Body weight (Fig4B)” value ([2]; Diben-500mpk, day 0, individual mice, 500 mg/kg) was 97.8 (2×) and 95.2 (2×) and 111.0 and 103.1, the “Body weight (Fig4B)” value ([2]; Diben-500mpk, day 1, individual mice, 500 mg/kg) was 118.9 and 116.3 and 111.0 and 105.7 (2×) and 124.2 and the “Body weight (Fig4B)” value ([2]; Diben-500mpk, day 2, individual mice, 500 mg/kg) was 145.4 and 111.0 and 129.5 (2×) and 97.8 and 116.3. The “Body weight (Fig4B)” value ([2]; Diben-500mpk, day 3, individual mice, 500 mg/kg) was 118.9 and 169.2 and 132.2 and 108.4 and 102.6 and 148.0, the “Body weight (Fig4B)” value ([2]; Diben-500mpk, day 4, individual mice, 500 mg/kg) was 150.7 and DIED (2×) and 187.7 and 103.1 and 161.2 and the “Body weight (Fig4B)” value ([2]; Diben-500mpk, day 5, individual mice, 500 mg/kg) was 100.4. For the same compound, the “viral loads by immunofluorescence staining of organ sections” value ([2]; HCoV-OC43 nucleocapsid protein) was “reduced the viral loads” and the “damage caused by viral infection in brain and lung sections (H&E)” value ([2]; oral DBM) was “significantly reduced the damage”.
